The values below come from patent publication US9821002B2, “Method for alleviating radiation injury with isorhamnetin-3-O-β-D-glucoside” (Sinotai Oncology Associate., Ltd., priority 2015, dated 2017).

In this assay the test system is NMuMG cells. Kind of assay: Clonogenic assay after X-ray irradiation. The format is cell-based, mouse. The settings on record: 30 μM, 2 h pretreatment, X-ray 2, 4, 6 Gy, colonies after two weeks. From the text:
Eight groups of BNL CL.2 cells (i.e., a normal control group referred to as Normal Control Group 1-A, an isorhamnetin-3-O-β-D-glucoside group referred to as Isorhamnetin-3-O-β-D-glucoside Group 1-A, three X-ray control groups referred to as X-Ray Control Groups 1-A to 3-A, and three experimental groups referred to as Experimental Groups 1-A to 3-A) and eight groups of NMuMG cells (i.e., a normal control group referred to as Normal Control Group 1-B, an isorhamnetin-3-O-β-D-glucoside group referred to as Isorhamnetin-3-O-β-D-glucoside Group 1-B, three X-ray control groups referred to as X-Ray Control Groups 1-B to 3-B, and three experimental groups referred to as Experimental Groups 1-B to 3-B) were prepared based on the procedure set forth in “Source and cultivation of cell lines” of “Experimental materials”. Specifically, BNL CL.2 cells in each group were cultivated using 5 mL of a corresponding medium shown in Table 1 and a 6-cm Petri dish in an amount of 2×10^5 cells per dish. Likewise, NMuMG cells in each group were cultivated using 5 mL of a corresponding medium shown in Table 1 and a 6-cm Petri dish in an amount of 2.5×10^5 cells per dish. The cultivation was conducted in an incubator (37° C., 5% CO2) for 24 hours. […]

In the case of `COc1cc(-c2oc3cc(O)cc(O)c3c(=O)c2O[C@@H]2O[C@H](CO)[C@@H](O)[C@H](O)[C@H]2O)ccc1O` [isorhamnetin-3-O-β-D-glucoside], the “survival fraction (clonogenic assay) versus X-ray control group” value is recorded as “higher than that of the X-ray control group”.
